Experimental findings from patent US8604042B2, “Bi-aryl meta-pyrimidine inhibitors of kinases” (TargeGen, Inc., priority 2005, dated 2013) are described below.

Counter-ions that a name gives are not always drawn.

For orientation: IC50 means the concentration that gives 50% inhibition.

This assay deals with T1, recombinant JAK2 (Homo sapiens, UniProt O60674).
T1 construct: purchased Upstate Cell Signaling Solutions
The experiment in a line: IC50 value determinations for Jak2 kinase, luminescence-based kinase assay (Kinase-Glo). The assay is classed as biochemical. Particulars: Table 1. On the technique in general: In Kinase-Glo more light means more ATP remaining.

T1 sequence (O60674 808-1132 limits assumed): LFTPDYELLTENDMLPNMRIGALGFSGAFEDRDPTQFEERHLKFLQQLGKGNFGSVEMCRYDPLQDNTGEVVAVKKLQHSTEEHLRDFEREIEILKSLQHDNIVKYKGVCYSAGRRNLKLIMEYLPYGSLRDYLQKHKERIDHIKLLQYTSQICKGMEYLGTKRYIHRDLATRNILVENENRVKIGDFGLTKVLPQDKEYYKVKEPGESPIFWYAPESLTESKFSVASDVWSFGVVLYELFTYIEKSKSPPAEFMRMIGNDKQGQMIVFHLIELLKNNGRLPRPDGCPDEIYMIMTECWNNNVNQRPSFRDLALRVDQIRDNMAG
Description: The IC50 values for compounds were determined using a luminescence-based kinase assay with recombinant JAK2 obtained from Upstate Cell Signaling Solutions. In white, flat bottom, 96-well plates (Nunc) parallel assays were run at room temperature at a final volume of 50 μL.
Two control reactions were also ran: one reaction containing no compound and the second containing neither inhibitor nor peptide substrate. IC50 values were derived from experimental data using the non-linear curve fitting capabilities of Prism (Version 4; GraphPad Software).

As for `Cc1cnc(Nc2ccc(N3CCNCC3)cc2)nc1Nc1cccc(S(=O)(=O)NC(C)(C)C)c1` [N-tert-Butyl-3-[5-methyl-2-(4-piperazin-1-yl-phenylamino)-pyrimidin-4-ylamino]-benzenesulfonamide Hydrochloride], the IC50 was 7.59 nM.
As for `Cc1cnc(Nc2ccc(-n3cccn3)cc2)nc1Nc1cccc(S(=O)(=O)NC(C)(C)C)c1` [N-tert-Butyl-3-[5-methyl-2-(4-pyrazol-1-yl-phenylamino)-pyrimidin-4-ylamino]-benzenesulfonamide], the 50% inhibitory concentration (IC50) came out at 19 nM.
For the compound `Cc1cnc(Nc2ccc(Cn3cccn3)cc2)nc1Nc1cccc(S(=O)(=O)NC(C)(C)C)c1` [N-tert-Butyl-3-[5-methyl-2-(4-pyrazol-1-ylmethyl-phenylamino)-pyrimidin-4-ylamino]-benzenesulfonamide], the half-maximal inhibitory concentration (IC50) amounted to 18.6 nM.
Regarding `Cc1cnc(Nc2ccc(Cc3ccncc3)cc2)nc1Nc1cccc(S(=O)(=O)NC(C)(C)C)c1` [N-tert-Butyl-3-[5-methyl-2-(4-pyridin-4-ylmethyl-phenylamino)-pyrimidin-4-ylamino]-benzenesulfonamide], the half-maximal inhibitory concentration (IC50) was found to be 80.7 nM.
For the compound `Cc1cnc(Nc2ccc(N3CCNCC3)nc2)nc1Nc1cccc(S(=O)(=O)NC(C)(C)C)c1` [N-tert-Butyl-3-[5-methyl-2-(6-piperazin-1-yl-pyridin-3-ylamino)-pyrimidin-4-ylamino]-benzenesulfonamide], the IC50 stood at 10 nM.
As for `Cc1cnc(Nc2ccc(OCCO)cc2)nc1Nc1cccc(S(=O)(=O)NC(C)(C)C)c1` [N-tert-Butyl-3-{2-[4-(2-hydroxy-ethoxy)-phenylamino]-5-methyl-pyrimidin-4-ylamino)-benzenesulfonamide], the IC50 was found to be 20.3 nM.
`Cc1cnc(Nc2cccc(-c3nnn[nH]3)c2)nc1Nc1cccc(S(=O)(=O)NC(C)(C)C)c1` [N-tert-Butyl-3-{5-methyl-2-[3-(1H-tetrazol-5-yl)-phenylamino]-pyrimidin-4-ylamino}-benzenesulfonamide]: the IC50 stood at 55.9 nM.
In the case of `Cc1cnc(Nc2cccc(S(=O)(=O)N3CCCCC3)c2)nc1Nc1cccc(S(=O)(=O)NC(C)(C)C)c1` [N-tert-Butyl-3-{5-methyl-2-[3-(piperidine-1-sulfonyl)-phenylamino]-pyrimidin-4-ylamino}-benzenesulfonamide] it was 316 nM; in that of `Cc1cnc(Nc2ccc(C(C)N3CCOCC3)cc2)nc1Nc1cccc(S(=O)(=O)NC(C)(C)C)c1` (centres unmarked) [N-tert-Butyl-3-{5-methyl-2-[4-(1-morpholin-4-yl-ethyl)-phenylamino]-pyrimidin-4-ylamino}-benzenesulfonamide], 29.7 nM; in that of `Cc1cnc(Nc2ccc(-c3nnn[nH]3)cc2)nc1Nc1cccc(S(=O)(=O)NC(C)(C)C)c1` [N-tert-Butyl-3-{5-methyl-2-[4-(1H-tetrazol-5-yl)-phenylamino]-pyrimidin-4-ylamino}-benzenesulfonamide], 96.7 nM.
For the compound `Cc1cnc(Nc2ccc(-n3ccnc3C)cc2)nc1Nc1cccc(S(=O)(=O)NC(C)(C)C)c1` [N-tert-Butyl-3-{5-methyl-2-[4-(2-methyl-imidazol-1-yl)-phenylamino]-pyrimidin-4-ylamino}-benzenesulfonamide], the IC50 amounted to 34.3 nM.
To `Cc1cnc(Nc2ccc(Cn3ccnc3C)cc2)nc1Nc1cccc(S(=O)(=O)NC(C)(C)C)c1` [N-tert-Butyl-3-{5-methyl-2-[4-(2-methyl-imidazol-1-ylmethyl)-phenylamino]-pyrimidin-4-ylamino}-benzenesulfonamide] belongs 21.9 nM; to `Cc1cn(-c2ccc(Nc3ncc(C)c(Nc4cccc(S(=O)(=O)NC(C)(C)C)c4)n3)cc2)cn1` [N-tert-Butyl-3-{5-methyl-2-[4-(4-methyl-imidazol-1-yl)-phenylamino]-pyrimidin-4-ylamino}-benzenesulfonamide], 41.7 nM.
In the case of `Cc1cnc(Nc2ccc(N3CCN(C)CC3)cc2)nc1Nc1cccc(C(=O)NC(C)(C)C)c1` [N-tert-Butyl-3-{5-methyl-2-[4-(4-methyl-piperazin-1-yl)-phenylamino]-pyrimidin-4-ylamino}-benzamide] it was 890 nM.
